From patent US10913733B2, “Substituted piperidines thiazolyl acetamides as glycosidase inhibitors and uses thereof” (priority 2015, dated 2021)

target: human O-GlcNAcase (Homo sapiens (Human), UniProt O60502); test: Assay for determination of KI values for inhibition of O-GlcNAcase activity; assay type: biochemical; conditions: purified human O-GlcNAcase 0.7 nM; substrate 2 mM 4-Methylumbelliferyl N-acetyl-β-D-glucosaminide; pH 7.0; room temperature; Cheng-Prusoff; read-out: hOGA Ki
Protocol: Assay for Determination of KI Values for Inhibition of O-GlcNAcase Activity
Experimental procedure for kinetic analyses: Enzymatic reactions were carried out in a reaction containing 50 mM NaH2PO4, 100 mM NaCl and 0.1% BSA (pH 7.0) using 2 mM 4-Methylumbelliferyl N-acetyl-β-D-glucosaminide dihydrate (Sigma M2133) dissolved in ddH2O, as a substrate. The amount of purified human O-GlcNAcase enzyme used in the reaction was 0.7 nM. Test compound of varying concentrations was added to the enzyme prior to initiation of the reaction. The reaction was performed at room temperature in a 96-well plate and was initiated with the addition of substrate. The production of fluorescent product was measured every 60 sec for 45 min with a Tecan Infinite M200 plate-reader with excitation at 355 nm and emission detected at […], with 4-Methylumbelliferone (Sigma M1381) used to produce a standard curve. The slope of product production was determined for each concentration of compound tested and plotted, using standard curve fitting algorithms for sigmoidal dose response curves. The values for a four parameter logistic curve fit of the data were determined. KI values were determined using the Cheng-Prusoff equation; the Km of O-GlcNAcase for substrate was 0.2 mM.

Chain of human O-GlcNAcase (O60502 whole entry): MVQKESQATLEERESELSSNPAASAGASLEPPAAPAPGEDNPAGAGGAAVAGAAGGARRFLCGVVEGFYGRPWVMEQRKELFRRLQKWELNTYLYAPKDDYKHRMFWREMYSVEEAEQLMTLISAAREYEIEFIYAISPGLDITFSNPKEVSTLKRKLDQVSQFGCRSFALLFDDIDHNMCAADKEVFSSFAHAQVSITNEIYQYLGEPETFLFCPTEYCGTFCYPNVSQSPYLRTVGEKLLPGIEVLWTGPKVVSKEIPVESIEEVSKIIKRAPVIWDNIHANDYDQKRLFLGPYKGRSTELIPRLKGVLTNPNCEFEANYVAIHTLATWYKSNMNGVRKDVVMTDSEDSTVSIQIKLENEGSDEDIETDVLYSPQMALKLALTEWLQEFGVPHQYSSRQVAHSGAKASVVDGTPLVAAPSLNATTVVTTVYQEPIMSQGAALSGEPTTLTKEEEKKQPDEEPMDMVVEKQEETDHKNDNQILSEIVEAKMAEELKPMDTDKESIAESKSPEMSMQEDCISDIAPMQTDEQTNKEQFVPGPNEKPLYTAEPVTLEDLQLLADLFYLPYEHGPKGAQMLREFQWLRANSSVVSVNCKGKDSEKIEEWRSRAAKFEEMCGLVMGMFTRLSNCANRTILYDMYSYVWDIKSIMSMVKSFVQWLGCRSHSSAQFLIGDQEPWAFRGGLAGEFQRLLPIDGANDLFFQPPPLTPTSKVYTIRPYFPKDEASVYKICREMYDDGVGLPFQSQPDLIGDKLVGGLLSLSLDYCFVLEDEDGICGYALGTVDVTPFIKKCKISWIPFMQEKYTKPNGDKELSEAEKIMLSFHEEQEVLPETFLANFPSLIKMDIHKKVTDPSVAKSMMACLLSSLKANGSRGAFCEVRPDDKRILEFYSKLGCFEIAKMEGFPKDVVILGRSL

Structure (SMILES)	Ki
COc1ccc(/C=C2\CCN(Cc3cnc(NC(C)=O)s3)[C@@H](C)C2)cc1 [Example 41, (S,E)-N-(5-((4-(4-methoxybenzylidene)-2-methylpiperidin-1-yl)methyl)thiazol-2-yl)acetamide]	9.61 nM
CC(=O)Nc1ncc(CN2CCC(=Cc3ccc(OCCF)cc3)CC2)s1 [Example 42, N-{5-[(4-{[4-(2-fluoroethoxy)phenyl]methylidene}piperidin-1-yl)methyl]-1,3-thiazol-2-yl}acetamide]	0.625 nM
COc1cccc(C=C2CCN(Cc3cnc(NC(C)=O)s3)CC2)c1 [Example 43, N-(5-((4-(3-methoxybenzylidene)piperidin-1-yl)methyl)thiazol-2-yl)acetamide]	2.93 nM
CC(=O)Nc1ncc(CN2CCC(=Cc3cccc(O)c3)CC2)s1 [Example 44, N-(5-((4-(3-hydroxybenzylidene)piperidin-1-yl)methyl)thiazol-2-yl)acetamide]	1.13 nM
C=CCOc1ccc(C=C2CCN(Cc3cnc(NC(C)=O)s3)CC2)cc1 [Example 45, N-{5-[(4-{[4-(prop-2-en-1-yloxy)phenyl]methylidene}piperidin-1-yl)methyl]-1,3-thiazol-2-yl}acetamide]	6.11 nM
COc1ccc(C=C2CCN(Cc3cnc(NC(C)=O)s3)CC2)cc1 [Example 46, N-[5-({4-[(4-methoxyphenyl)methylidene]piperidin-1-yl}methyl)-1,3-thiazol-2-yl]acetamide]	2 nM
COc1ccccc1C=C1CCN(Cc2cnc(NC(C)=O)s2)CC1 [Example 47, N-(5-((4-(2-methoxybenzylidene)piperidin-1-yl)methyl)thiazol-2-yl)acetamide]	2.45 nM
CC(=O)Nc1ncc(CN2CCC(=Cc3ccc(-c4ccccc4)cc3)CC2)s1 [Example 48, N-(5-((4-([1,1′-biphenyl]-4-ylmethylene)piperidin-1-yl)methyl)thiazol-2-yl)acetamide]	53.8 nM
CC(=O)Nc1ncc(CN2CCC(=Cc3ccc([N+](=O)[O-])nc3)CC2)s1 [Example 49]	1.6 nM
CC(=O)Nc1ncc(CN2CCC(=Cc3ccc(CCO)cc3)CC2)s1 [Example 50, N-(5-((4-(4-(2-hydroxyethyl)benzylidene)piperidin-1-yl)methyl)thiazol-2-yl)acetamide]	0.241 nM
CC(=O)Nc1ncc(CN2CC/C(=C/c3ccc(F)nc3)C[C@H]2C)s1 [Example 51, (R,Z)—N-(5-((4-((6-fluoropyridin-3-yl)methylene)-2-methylpiperidin-1-yl)methyl)thiazol-2-yl)acetamide]	218 nM
CC(=O)Nc1ncc(CN2CC/C(=C/c3ccc(F)nc3)C[C@@H]2C)s1 [Example 52, (S,Z)—N-(5-((4-((6-fluoropyridin-3-yl)methylene)-2-methylpiperidin-1-yl)methyl)thiazol-2-yl)acetamide]	0.389 nM
CC(=O)Nc1ncc(CN2CC/C(=C\c3ccc(F)nc3)C[C@H]2C)s1 [Example 53, (R,E)-N-(5-((4-((6-fluoropyridin-3-yl)methylene)-2-methylpiperidin-1-yl)methyl)thiazol-2-yl)acetamide]	123 nM
CC(=O)Nc1ncc(CN2CC/C(=C\c3ccc(F)nc3)C[C@@H]2C)s1 [Example 54, (S,E)-N-(5-((4-((6-fluoropyridin-3-yl)methylene)-2-methylpiperidin-1-yl)methyl)thiazol-2-yl)acetamide]	11.8 nM
